Measured values taken from US9546129B2, “DTPA prodrugs, compositions thereof, and methods of using the same” (priority 2012, dated 2017).

Tested on: ^241Am contaminated rats
Experiment: C2E2 single dose ^241Am decorporation in rats (IM contamination)
Format: in vivo, Sprague Dawley rat
Conditions: for Cage Wash ^241Am / Feces ^241Am / Liver burden / Total Decorporation / Urine ^241Am: single dose 24 h after IM ^241Am, 7 days
Procedure: This study was to assess the efficacy of a single oral gavage dose of C2E2 in ^241Am contaminated rats. A 200 μL aliquot was withdrawn from a stock solution of ^241Am nitrate (0.1 mCi in 5 mL 1 M HNO3), evaporated to dryness, dissolved in concentrated HNO3 (15 M, 5 mL) then evaporated to dryness and dissolved in dilute HNO3 (0.1 M, 8 mL) to form the injection solution. Groups of 4 female Sprague-Dawley rats were contaminated with 250 nCi of ^241Am nitrate by IM injection ([…]) then were administered single doses of C2E2 by gavage at 200, 600, or 1000 mg/kg under ad lib feeding conditions utilizing a 10% w/w solution in sterile water (dose volumes were 2, 6, and 10 mL/kg, for the 200, 600, and 1000 mg/kg doses, respectively). For the fasted component of the study, the animals were fasted 24 hours before treatment then for 2 hours post drug administration. Control groups with ad lib access to food and water were either untreated or administered an IV dose of the calcium salt of DTPA (Ca-DTPA) at 14 mg/kg (target dose volume of 0.7 mL/kg and concentration of 20 mg/mL). Treatment was administered 1 day after contamination. All animals were euthanized 7 days after contamination and the following tissues were collected: liver, both kidneys, both femurs as well as the ipsilateral and the contralateral hind leg muscle tissue and the pelt from the injection site. Urine and feces were collected from the time of contamination through euthanasia. Cage washings were also collected at the end of the study and considered part of total urine collection. Two aliquots (100 μL) of the injection solution were removed and ^241Am gamma activity was determined using radiomatic detection. The average of these standards is the injected dose used for all animals. All tissues and samples were counted in a similar manner. Americium content was expressed as a percentage of the injected dose. Overall recovery of radioactivity across all groups in this study was approximately 90%. […] The primary route by which both DTPA and C2E2 enhanced elimination of ^241Am occurred was by urinary clearance. […] Fecal clearance of ^241Am was not altered by feeding status, an observation that is consistent with the similar liver burden between the two groups at the end of the study. […] As with DTPA, enhanced decorporation by C2E2 occurred through enhanced urinary clearance.
Male and female Sprague Dawley rats (n=4/gender/dose) were administered single oral doses of diethylenetriaminepentaacetic acid diethyl ester (C2E2) by gavage 24 hours after intramuscular contamination with ^241Am(NO3)3 (250 nCi) under ad libitum and fasted conditions. Animals received single oral nominal doses of 200, 600, or 1000 mg/kg C2E2. Untreated animals and animals treated with an intravenous dose of Ca-DTPA ([…]) 24 hours after contamination served as controls; only ad libitum conditions were used for control animals. Total radionuclide decorporation and radionuclide tissue burden were evaluated seven days after contamination.
Male and female Sprague Dawley rats were contaminated with ^241Am(NO3)3 (0.25 μCi) by intramuscular injection (0.1 mL, 0.1 M HNO3) into the right hind leg, under isoflurane anesthesia. Immediately after injection, body weights were recorded (Day 0 weight) and animals were placed in individual metabolic cages.
Approximately eight hours after contamination—and 16 hours before test article administration—rats assigned to the Fasted groups had access to food restricted by removing the food chamber from their metabolic cages and collecting all loose chow from their housing chambers. Food chambers were replaced 1 hour after oral gavage treatment, restoring access to food. At all other times all animals had ad libitum access to food.
Male and female Sprague-Dawley rats assigned to test groups each received a single oral gavage dose of 0, 200, 600, or 1000 mg/kg of C2E2 utilizing a 10% w/w solution in water 24 hours after contamination. […]

[1] = C2E2 200 mg/kg gavage, ad lib, female rats
[2] = C2E2 200 mg/kg gavage, fasted, female rats
[3] = C2E2 600 mg/kg gavage, ad lib, female rats
[4] = C2E2 600 mg/kg gavage, fasted, female rats
[5] = C2E2 1000 mg/kg gavage, ad lib, female rats
[6] = C2E2 1000 mg/kg gavage, fasted, female rats

CCOC(=O)CN(CCN(CCN(CC(=O)O)CC(=O)OCC)CC(=O)O)CC(=O)O [C2E2, 6,9-bis(carboxymethyl)-3-(2-ethoxy-2-oxoethyl)-11-oxo-12-oxa-3,6,9-triazatetradecan-1-oic acid]
Cage Wash ^241Am [1]: 1.8 ± 0.5%
Feces ^241Am [1]: 5.9 ± 0.8%
Liver burden [1]: 17.7 ± 2.1 % injected
Total Decorporation [1]: 14.4 ± 0.7 % injected
Urine ^241Am [1]: 6.7 ± 1.5%
Cage Wash ^241Am [2]: 1.3 ± 0.5%
Feces ^241Am [2]: 4.7 ± 2.1%
Liver burden [2]: 20.9 ± 3.5 % injected
Total Decorporation [2]: 14.3 ± 3.2 % injected
Urine ^241Am [2]: 8.4 ± 1.3%
Cage Wash ^241Am [3]: 2.2 ± 0.8%
Feces ^241Am [3]: 7.7 ± 2.0%
Liver burden [3]: 18.6 ± 4.5 % injected
Total Decorporation [3]: 22.3 ± 3.1 % injected
Urine ^241Am [3]: 12.4 ± 1.3%
Cage Wash ^241Am [4]: 2.6 ± 0.8%
Feces ^241Am [4]: 7.3 ± 1.5%
Liver burden [4]: 18.9 ± 2.3 % injected
Total Decorporation [4]: 24.2 ± 3.3 % injected
Urine ^241Am [4]: 14.3 ± 2.9%
Cage Wash ^241Am [5]: 3.4 ± 0.3%
Feces ^241Am [5]: 6.9 ± 1.7%
Liver burden [5]: 14.5 ± 1.5 % injected
Total Decorporation [5]: 23.8 ± 3.0 % injected
Urine ^241Am [5]: 13.5 ± 1.7%
Cage Wash ^241Am [6]: 4.5 ± 0.7%
Feces ^241Am [6]: 7.1 ± 1.3%
Liver burden [6]: 13.7 ± 3.1 % injected
Total Decorporation [6]: 31.3 ± 5.5 % injected
Urine ^241Am [6]: 19.8 ± 3.9%
Efficacy compared with intravenous Ca-DTPA (C2E2 1000 mg/kg single oral dose vs Ca-DTPA 13.3 mg/kg iv, no equivalence analysis): comparable, in terms of efficacy, to an intravenous dose of Ca-DTPA (13.3 mg/kg)
Effect of fasting on efficacy of the C2E2 dose (daily urinary and fecal americium, male and female rats): not altered by fasting rats prior to their C2E2 treatment
Skeletal burden vs untreated controls (statistics) (female rats): not significantly changed by C2E2 treatment
Dose with significantly enhanced decorporation vs untreated controls (female rats, p<0.001): above 600 mg/kg
^241Am liver burden vs untreated controls (statistics) (female rats, p<0.01): Only the reduction in burden following the 1000 mg/kg dose was statistically significant
Wound site retention of americium vs untreated controls (statistics) (male and female rats): did not correspond with a significant change in tissue burden compared to untreated controls at any single C2E2 dose
Dose with significant reduction of estimated skeletal americium burden vs untreated controls (male rats): ≥ 600 mg/kg
^241Am liver burden vs untreated controls (statistics) (male rats): significantly reduced compared to untreated controls at doses of 200 mg/kg (p<0.05) and 1000 mg/kg (p<0.001)
Dose with significantly increased total decorporation vs untreated controls (male rats, p<0.001): ≥ 600 mg/kg
